Measured values from US20140011811A1, “MYOSIN BINDING PROTEIN-C FOR USE IN METHODS RELATING TO DIASTOLIC HEART FAILURE” (The United States Government as represented by the …, priority 2011, published 2014).

Assays:
[1] = test system: DOCA-salt mice; experiment: Echocardiography (mitral pulse wave Doppler flow and tissue Doppler imaging) in DOCA-salt mouse model of diastolic dysfunction; format: in vivo; details: DOCA-salt+BH4 mice, BH4 supplemental diet 5 mg BH4/day, postoperative day 11 to 18, echocardiography day 18
Method: Previously, we have shown that the DOCA-salt mouse model leads to mild hypertension, NOS uncoupling, myocardial oxidative stress, and diastolic dysfunction. A gradual and mild elevation in blood pressure was induced by unilateral nephrectomy, subcutaneous implantation of a controlled release deoxycorticosterone acetate (DOCA) pellet (0.7 mg/d; Innovative Research of America, Sarasota, Fla.), and substituting drinking water with 1.05% saline. Control animals underwent a sham operation, had placebo pellet implantation, and received water without salt.
Mice were divided into two groups which received a control diet (sham N=7; DOCA-salt N=10) and two groups which received a BH4 supplemental diet of 5 mg BH4/day (Research Diets Inc, New Brunswick, N.J.; sham+BH4 N=8; DOCA-salt+BH4 N=8). The supplemental diet began on day 11 after surgery, and continued until day 18, when the mice were analyzed and sacrificed.
Ten days after surgery, we employed echocardiography to characterize the diastolic dysfunction. […] The images for each mouse were recorded for at least 5 s (30-40 cardiac cycles) from which three to five representative cycles with the highest quality imaging were selected. Percent fractional shortenin (% FS) were calculated as 100×(LVEDd)-(LVESd)/(LVEDd) and percent LV ejection fraction (%EF) was calculated as 100×[(7/2.4+LVEDd)×LEDd^3]−[(7/2.4+LVESd)×LVESd^3]/[(7/2.4+LVEDd)×LEDd^3]. […]

[2] = test system: MyBP-C; experiment: Pro-Q Diamond gel stain of phosphorylation of MyBP-C in myofibrils from treated DOCA-salt and sham mice; format: in vivo, mouse; details: DOCA-salt or sham mice treated as in Examples 1 and 2
Method: DOCA-salt or sham mice were administered ranolazine or BH4 as essentially described in Examples 1 and 2, respectively. Pro-Q Diamond (Invitrogen) gel stain was used to detect changes in phosphorylation states of MyBP-C. Myofibrils were prepared from DOCA-salt and sham models of the mice hearts, and pellets were solubilized in a non-reducing 2× laemmli buffer (4% SDS, 20% glycerol, 0.004% bromophenol blue, and 0.125 M Tris HCl pH 6.8). 25 mM N-ethylmaleimide (NEM) was added to the standard rigor buffer with Triton X-100, the standard rigor wash buffer, and the 2× Laemmli buffer. An RC-DC assay (BioRad) was used to determine protein concentrations. Samples were diluted at 1:1 ratio in reducing sample buffer (8 M urea, 2 M thiourea, 0.05 M tris pH 6.8, 75 mM DTT, 3% SDS, and 0.05% bromophenol blue and approximately 10 μg of protein was loaded on to a 12% resolving 1D SDS-PAGE gel. The gels were stained and destained with Pro-Q Diamond according to the manufacturer's recommendations prior to the imaging with a Typhoon 9410 scanner (GE Healthcare). Coomassie R-250 staining was used to normalize protein load to both actin and the whole lane. Optical density of the proteins was determined using ImageQuant TL (GE Healthcare) software and results were exported to Excel for further analysis.

[3] = test system: myosin binding protein C (MyBP-C); experiment: Western immunoblotting of S-glutathionylation of MyBP-C in cardiac myofilaments from treated DOCA-salt and sham mice; format: in vivo, mouse; details: chronic ranolazine diet (~1 g/day tablet with 5 mg ranolazine and 0.3 mg P450 inhibitor), postoperative day 11 to 18
Method: Chronic Administration of Ranolazine: A special diet contained 5 mg ranolazine, 0.3 mg P450 inhibitor, and 0.25 mg red food color was pressed into a 1-g nutritionally complete grain-based tablet (Harlan, Madison, Wis.). The control diet contained 0.3mg P450 inhibitor and 0.25 mg yellow food color pressed into the same type of 1-g tablets. DOCA-salt and sham mice consumed daily ˜1g of the special diet from postoperative day 11 to 18. Western blot analysis was used to detect for glutathionylated proteins. […] Using the protein concentration determined from an RC-DC (Bio-Rad) assay, 40 μg of total protein was applied to 1D 12% resolving SDS-PAGE gel and transferred onto a 0.2 μM Polyvinylidene fluoride (PVDF) membrane. […] Anti-glutathione mouse monoclonal primary antibody (Virogen, Watertown, Mass.) was used at 1:1000 dilution along with anti-mouse HRP-conjugated secondary antibody (Sigma) at 1:100,000 dilution to detect for S-glutathionylation.10 Optical density of the bands was measured with ImageQuant TL (GE Healthcare) and exported to Excel for further analysis. […] Using the protein concentration determined from an RC-DC (Bio-Rad) assay, 40 µg of total protein was applied to a 12% SDS-PAGE gel and transferred onto a 0.2 pm PVDF membrane. […] Optical density of the bands was measured with ImageQuant TL (GE Healthcare) and exported to Excel for further analysis. […]

With `C[C@H](O)[C@H](O)[C@H]1CNc2nc(N)[nH]c(=O)c2N1` [BH4, tetrahydrobiopterin] the “ratio of E′A′ (mitral tissue Doppler E′/A′)” value ([1]; vs. DOCA-salt 0.74±0.05, P<0.001) was 1.12±1.10 and the “E/E′ ratio, a measure of left atrial pressure” value ([1]; vs. DOCA-salt 43.7±2.7, P<0.01) was 34.5±2.2.

With `COc1ccccc1OCC(O)CN1CCN(CC(=O)Nc2c(C)cccc2C)CC1` (stereo not shown) [ranolazine] the “phosphorylation levels of MyBP-C” value [2] was “did not affect” and the MyBP-C glutathionylation [3] was “regressed level”.
